Source: patent US10577363B2, “Substituted piperidine compounds” (EPIZYME, INC., priority 2014, dated 2020)

Target: SMYD3 (Homo sapiens (Human), UniProt Q9H7B4)
Assay: SMYD3 biochemical assay (SPA, 3H-SAM methylation of MEKK2 protein substrate)
Conditions: read-out: SMYD3 Biochem IC50 (μM)*
Source text: S-adenosylmethionine (SAM), S-adenosylhomocysteine (SAH), Tris, Tween20, dimethylsulfoxide (DMSO), bovine skin gelatin (BSG), and Tris(2-carboxyethyl)phosphine hydrochloride solution (TCEP) were purchased from Sigma-Aldrich at the highest level of purity possible. ^3H-SAM was purchase from American Radiolabeled Chemicals with a specific activity of 80 Ci/mmol. 384-well opaque white OptiPlates and SPA beads (Perkin Elmer, catalog # RPNQ0013) were purchased from PerkinElmer.
N-terminally GST-tagged MEKK2 (MAP3K2) protein corresponding to reference sequence AAF63496.3 was purchased from Life Technologies (catalog # PV4010). This protein was expressed in High Five insect cells and purified to >85% purity. Protein identity was confirmed by MS/MS analysis after proteolytic digestion. The protein sequence used was:
Full-length human SMYD3 isoform 1 (BAB86333) was inserted into a modified pET21b plasmid containing a His6 tag and TEV and SUMO cleavage sites.
E. coli (BL21 codonplus RIL strain, Stratagene) were transformed with plasmid pEPZ553 by mixing competent cells and plasmid DNA and incubating on ice for 30 minutes followed by heat shock at 42° C. for 1 minute and cooling on ice for 2 minutes. Transformed cells were grown and selected on LB agar with 100 μg/mL ampicillin and 17 μg/mL chloramphenicol at 37° C. overnight. A single clone was used to inoculate 200 mL of LB medium with 100 μg/mL ampicillin and 17 μg/mL chloramphenicol and incubated at 37° C. on an orbital shaker at 180 rpm. Once in log growth, the culture was diluted 1:100 into 2 L of LB medium and grown until OD600 was about 0.3 after which the culture was incubated at 15° C. and 160 rpm. Once OD600 reached about 0.4, IPTG was added to a final concentration of 0.1 mM and the cells were grown overnight at 15° C. and 160 rpm. Cells were harvested by centrifugation at 8000 rpm, for 4 minutes at 4° C. and stored at −80° C. for purification.
The column was washed with Buffer B (Buffer A plus 20 mM imidazole) and His-tagged SMYD3 was eluted with Buffer C (Buffer A plus 300 mM imidazole). The His tag, TEV and SUMO cleavage sites were removed generating native SMYD3 by addition of ULP1 protein at a ratio of 1:200 (ULP1:SMYD3). Imidazole was removed by dialysis overnight in Buffer A. The dialyzed solution was applied to a second Nickel column and the native SMYD3 protein was collected from the column flow-through. The flow-through was dialyzed in Buffer D (25 mM Tris, 5% glycerol, 5 mM β-mercaptoethanol, 50 mM NaCl, pH7.8) and ULP1 was removed using a Q sepharose fast flow column.
General Procedure for SMYD3 Enzyme Assays on MEKK2 Protein Substrate
The assays were all performed in a buffer consisting of 25 mM Tris-Cl pH 8.0, 1 mM TCEP, 0.005% BSG, and 0.005% Tween 20, prepared on the day of use. […] DMSO (1 ul) was added to Columns 11, 12, 23, 24, rows A-H for the maximum signal control and 1 ul of SAH, a known product and inhibitor of SMYD3, was added to columns 11, 12, 23, 24, rows I-P for the minimum signal control. A cocktail (40 ul) containing the SMYD3 enzyme was added by Multidrop Combi (Thermo-Fisher). The compounds were allowed to incubate with SMYD3 for 30 min at room temperature, then a cocktail (10 ul) containing SAM and MEKK2 was added to initiate the reaction (final volume=51 ul). […] The assays were stopped by the addition of non-radiolabeled SAM (10 ul) to a final concentration of 100 uM, which dilutes the ^3H-SAM to a level where its incorporation into MEKK2 is no longer detectable. Radiolabeled MEKK2 was detected using a scintillation proximity assay (SPA). 10 uL of a 10 mg/mL solution of SPA beads in 0.5 M citric acid was added and the plates centrifuged at 600 rpm for 1 min to precipitate the radiolabeled MEKK2 onto the SPA beads. The plates were then read in a PerkinElmer TopCount plate reader to measure the quantity of ^3H-labeled MEKK2 as disintegrations per minute (dpm) or alternatively, referred to as counts per minute (cpm).

| IC50 | SMILES |
| --- | --- |
| 30.9 µM | O=C(NC1CCN(C(=O)[C@@H](CO)Cc2ccccc2)CC1)c1cc(C2CC2)on1 [compound 19, (R)-N-(1-(2-benzyl-3-hydroxypropanoyl)piperidin-4-yl)-5-cyclopropylisoxazole-3-carboxamide] |
| 5.77 µM | N[C@H]1C[C@H](C(=O)N2CCC(NC(=O)c3cc(C4CC4)on3)CC2)C1 [compound 20, N-(1-((1r,3r)-3-aminocyclobutane-1-carbonyl)piperidin-4-yl)-5-cyclopropylisoxazole-3-carboxamide] |
| 5.69 µM | N[C@H]1C[C@@H](C(=O)N2CCC(NC(=O)c3cc(C4CC4)on3)CC2)C1 [compound 21, N-(1-((1s,3s)-3-aminocyclobutane-1-carbonyl)piperidin-4-yl)-5-cyclopropylisoxazole-3-carboxamide] |
| 2 µM | C[C@H]1CN(C(=O)[C@H]2CC[C@H](N)CC2)CCC1NC(=O)c1cc(C2CC2)on1 (stereo partly drawn) [compound 24, N-((3S)-1-((1r,4S)-4-aminocyclohexane-1-carbonyl)-3-methylpiperidin-4-yl)-5-cyclopropylisoxazole-3-carboxamide] |
| 0.299 µM | C[C@@H]1CN(C(=O)[C@H]2CC[C@H](N)CC2)CCC1NC(=O)c1cc(C2CC2)on1 (stereo partly drawn) [compound 25, N-((3R)-1-((1r,4R)-4-aminocyclohexane-1-carbonyl)-3-methylpiperidin-4-yl)-5-cyclopropylisoxazole-3-carboxamide] |
| 5.24 µM | NC[C@@H](Cc1ccc(O)cc1)C(=O)N1CCC(NC(=O)c2cc(C3CC3)on2)CC1 [compound 26, (R)-N-(1-(3-amino-2-(4-hydroxybenzyl)propanoyl)piperidin-4-yl)-5-cyclopropylisoxazole-3-carboxamide] |
| 0.342 µM | NC[C@H](Cc1ccc(O)cc1)C(=O)N1CCC(NC(=O)c2cc(C3CC3)on2)CC1 [compound 27, (S)-N-(1-(3-amino-2-(4-hydroxybenzyl)propanoyl)piperidin-4-yl)-5-cyclopropylisoxazole-3-carboxamide] |
| 2.04 µM | NC[C@@H](Cc1ccc(O)c(I)c1)C(=O)N1CCC(NC(=O)c2cc(C3CC3)on2)CC1 [compound 28, (R)-N-(1-(3-amino-2-(4-hydroxy-3-iodobenzyl)propanoyl)piperidin-4-yl)-5-cyclopropylisoxazole-3-carboxamide] |
| 42.7 µM | O=C(NC1CCN(C[C@H](O)Cc2ccc(O)cc2)CC1)c1cc(C2CC2)on1 [compound 30, (R)-5-cyclopropyl-N-(1-(2-hydroxy-3-(4-hydroxyphenyl)propyl)piperidin-4-yl)isoxazole-3-carboxamide] |
| 5.1 µM | O=C(NC1CCN(C(=O)[C@@H](CO)Cc2ccc(O)c(I)c2)CC1)c1cc(C2CC2)on1 [compound 31, (R)-5-cyclopropyl-N-(1-(3-hydroxy-2-(4-hydroxy-3-iodobenzyl)propanoyl)piperidin-4-yl)isoxazole-3-carboxamide] |
| 4.11 µM | C[C@H](N)CC(=O)NC[C@@H](Cc1ccc(O)c(I)c1)C(=O)N1CCC(NC(=O)c2cc(C3CC3)on2)CC1 [compound 32, N-(1-((R)-3-((S)-3-aminobutanamido)-2-(4-hydroxy-3-iodobenzyl)propanoyl)piperidin-4-yl)-5-cyclopropylisoxazole-3-carboxamide] |
| 0.473 µM | C[C@H](N)CC(=O)NC[C@H](Cc1ccc(O)c(I)c1)C(=O)N1CCC(NC(=O)c2cc(C3CC3)on2)CC1 [compound 33, N-(1-((S)-3-((S)-3-aminobutanamido)-2-(4-hydroxy-3-iodobenzyl)propanoyl)piperidin-4-yl)-5-cyclopropylisoxazole-3-carboxamide] |

Second part, the molecule before the results:

| SMILES | IC50 |
| --- | --- |
| N[C@@H](Cc1ccccc1)C(=O)N1CCC(NC(=O)c2cc(C3CC3)on2)CC1 [compound 1, N-(1-(L-phenylalanyl)piperidin-4-yl)-5-cyclopropylisoxazole-3-carboxamide] | 2.88 µM |
| N[C@H](Cc1c[nH]c2ccccc12)C(=O)N1CCC(NC(=O)c2cc(C3CC3)on2)CC1 [compound 2, N-(1-(D-tryptophyl)piperidin-4-yl)-5-cyclopropylisoxazole-3-carboxamide] | 15.5 µM |
| N[C@@H](Cc1ccc(O)cc1)C(=O)N1CCC(NC(=O)c2cc(C3CC3)on2)CC1 [compound 3, N-(1-(L-tyrosyl)piperidin-4-yl)-5-cyclopropylisoxazole-3-carboxamide] | 0.486 µM |
| NCC(=O)N[C@@H](Cc1c[nH]c2ccccc12)C(=O)N1CCC(NC(=O)c2cc(C3CC3)on2)CC1 [compound 4, 5-cyclopropyl-N-(1-(glycyl-L-tryptophyl)piperidin-4-yl)isoxazole-3-carboxamide] | 0.947 µM |
| C[C@@H]1CC(NC(=O)c2cc(C3CC3)on2)CCN1C(=O)[C@@H](N)Cc1ccc(O)cc1 (stereo partly drawn) [compound 6, N-((2R)-1-(L-tyrosyl)-2-methylpiperidin-4-yl)-5-cyclopropylisoxazole-3-carboxamide] | 2.97 µM |
| C[C@H]1CC(NC(=O)c2cc(C3CC3)on2)CCN1C(=O)[C@@H](N)Cc1ccc(O)cc1 (stereo partly drawn) [compound 7, N-((2S)-1-(L-tyrosyl)-2-methylpiperidin-4-yl)-5-cyclopropylisoxazole-3-carboxamide] | 1.04 µM |
| CN[C@@H](Cc1cn(C)c2ccccc12)C(=O)N1CCC(NC(=O)c2cc(C3CC3)on2)CC1 [compound 8, 5-cyclopropyl-N-(1-(Na,1-dimethyl-L-tryptophyl)piperidin-4-yl)isoxazole-3-carboxamide] | 1.2 µM |
| N[C@@H](Cc1ccc(O)c(Br)c1)C(=O)N1CCC(NC(=O)c2cc(C3CC3)on2)CC1 [compound 9, (S)-N-(1-(2-amino-3-(3-bromo-4-hydroxyphenyl)propanoyl)piperidin-4-yl)-5-cyclopropylisoxazole-3-carboxamide] | 0.214 µM |
| NC[C@H](Cc1ccccc1)C(=O)N1CCC(NC(=O)c2cc(C3CC3)on2)CC1 [compound 11, (S)-N-(1-(3-amino-2-benzylpropanoyl)piperidin-4-yl)-5-cyclopropylisoxazole-3-carboxamide] | 2.41 µM |
| N[C@H]1CC[C@H](C(=O)N2CCC(NC(=O)c3cc(C4CC4)on3)CC2)CC1 [compound 13, N-(1-((1r,4R)-4-aminocyclohexane-1-carbonyl)piperidin-4-yl)-5-cyclopropylisoxazole-3-carboxamide] | 1.29 µM |
| N[C@@H](Cc1ccc(O)cc1)CN1CCC(NC(=O)c2cc(C3CC3)on2)CC1 [compound 14, (S)-N-(1-(2-amino-3-(4-hydroxyphenyl)propyl)piperidin-4-yl)-5-cyclopropylisoxazole-3-carboxamide] | 4.59 µM |
| O=C(NC1CCN(C(=O)C2CCNCC2)CC1)c1cc(C2CC2)on1 [compound 15, 5-cyclopropyl-N-(1-(piperidine-4-carbonyl)piperidin-4-yl)isoxazole-3-carboxamide] | 8.55 µM |
| CN1CCC(C(=O)N2CCC(NC(=O)c3cc(C4CC4)on3)CC2)CC1 [compound 16, 5-cyclopropyl-N-(1-(1-methylpiperidine-4-carbonyl)piperidin-4-yl)isoxazole-3-carboxamide] | 10 µM |
| O=C(NC1CCN(C(=O)CC2CCNCC2)CC1)c1cc(C2CC2)on1 [compound 17, 5-cyclopropyl-N-(1-(2-(piperidin-4-yl)acetyl)piperidin-4-yl)isoxazole-3-carboxamide] | 1.06 µM |
| CN1CCC(CC(=O)N2CCC(NC(=O)c3cc(C4CC4)on3)CC2)CC1 [compound 18, 5-cyclopropyl-N-(1-(2-(1-methylpiperidin-4-yl)acetyl)piperidin-4-yl)isoxazole-3-carboxamide] | 5.08 µM |
